Where “and” joins values, the source holds several entries; their conditions need not be identical. Identical values can stand only once.
Assays:
[1] = target: TAS2R40 (Homo sapiens, UniProt P59535); assay: Calcium mobilization assay, HEK293T-Gα16gust44 cells expressing TAS2R40; settings: maximal concentration tested: sucralose 100 mM, neotame 30 µM, Ace-K 300 mM, RebA 4 mM, RebM 4 mM, mogroside V 5 mM, erythritol 200 mM, D-allulose 500 mM, thaumatin 100 mM
Protocol: (§1) Different concentration ranges were tested depending on the injected sweet compound. […] All of the concentration-receptor combinations were measured in triplicate, and each experiment was repeated at least 3 times. The Ca^2+ change was expressed as a fractional change in fluorescent light intensity: ΔF/F = (F − F0)/F0, where F was the fluorescent light intensity at each point, and F0 was the value of fluorescent light emitted prior to stimulus application. To calculate dose–response relationships, the changes in fluorescence upon stimulus application were averaged, mock-subtracted and baseline-corrected. The resulting obtained dose–response data were adjusted by using a 4-parameter logistic equation.

[2] = target: T1, TAS2R14 (Homo sapiens, UniProt Q9NYV8); assay: Calcium mobilization assay, HEK293T-Gα16gust44 cells expressing TAS2R14; settings: maximal concentration tested: sucralose 100 mM, neotame 30 µM, Ace-K 300 mM, RebA 4 mM, RebM 4 mM, mogroside V 5 mM, erythritol 200 mM, D-allulose 500 mM, thaumatin 100 mM
T1 sequence (Q9NYV8 1-317): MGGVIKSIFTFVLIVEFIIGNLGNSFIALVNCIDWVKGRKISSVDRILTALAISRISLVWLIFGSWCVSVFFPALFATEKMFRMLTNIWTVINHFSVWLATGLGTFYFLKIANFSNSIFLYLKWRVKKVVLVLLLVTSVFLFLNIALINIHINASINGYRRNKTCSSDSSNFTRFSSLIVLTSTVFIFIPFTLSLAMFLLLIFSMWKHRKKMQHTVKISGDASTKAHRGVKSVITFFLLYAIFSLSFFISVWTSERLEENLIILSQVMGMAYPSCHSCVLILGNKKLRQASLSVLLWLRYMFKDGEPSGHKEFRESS
Protocol: as §1

[3] = system: 25 human TAS2Rs; assay: Screen of the 25 human TAS2Rs, calcium mobilization in HEK293T-Gα16gust44 cells; assay type: cell-based; settings: for activation of any TAS2Rs: at the maximal tested concentration (Table 4); for number of TAS2Rs activated: of the 25 human TAS2Rs
Protocol: The activation of the 25 human TAS2Rs by the 9 selected sweeteners (excluding sucrose) was examined by using HEK293T-Gα16gust44 cells. Cellular responses were measured after cell stimulation with various concentrations of the sweeteners.

[4] = target: T2, TAS2R50 (Homo sapiens, UniProt P59544); assay: Calcium mobilization assay, HEK293T-Gα16gust44 cells expressing TAS2R50; settings: maximal concentration tested: sucralose 100 mM, neotame 30 µM, Ace-K 300 mM, RebA 4 mM, RebM 4 mM, mogroside V 5 mM, erythritol 200 mM, D-allulose 500 mM, thaumatin 100 mM
T2 sequence (P59544 1-299): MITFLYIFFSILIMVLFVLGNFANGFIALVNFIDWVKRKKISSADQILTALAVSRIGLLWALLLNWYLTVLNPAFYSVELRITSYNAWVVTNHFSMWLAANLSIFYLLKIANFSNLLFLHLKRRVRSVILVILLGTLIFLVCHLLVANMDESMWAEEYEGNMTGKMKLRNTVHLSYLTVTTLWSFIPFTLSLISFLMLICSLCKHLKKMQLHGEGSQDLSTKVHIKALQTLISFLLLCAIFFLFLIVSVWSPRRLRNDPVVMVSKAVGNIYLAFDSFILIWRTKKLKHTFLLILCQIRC
Protocol: (§2) Different concentration ranges were tested depending on the injected sweet compound. […] All of the concentration-receptor combinations were measured in triplicate, and each experiment was repeated at least 3 times. The Ca^2+ change was expressed as a fractional change in fluorescent light intensity: ΔF/F = (F − F0)/F0, where F was the fluorescent light intensity at each point, and F0 was the value of fluorescent light emitted prior to stimulus application. To calculate dose–response relationships, the changes in fluorescence upon stimulus application were averaged, mock-subtracted and baseline-corrected. The resulting obtained dose–response data were adjusted by using a 4-parameter logistic equation. The half-maximal effective concentration (EC50) was calculated by using SigmaPlot software (Systat Software, San Jose, CA, USA) as described in supplemental Supplementary Figs. S1, S2, and S3.

[5] = target: T3, TAS2R45 (Homo sapiens, UniProt P59539); assay: Calcium mobilization assay, HEK293T-Gα16gust44 cells expressing TAS2R45; settings: maximal concentration tested: sucralose 100 mM, neotame 30 µM, Ace-K 300 mM, RebA 4 mM, RebM 4 mM, mogroside V 5 mM, erythritol 200 mM, D-allulose 500 mM, thaumatin 100 mM
T3 sequence (P59539 1-299): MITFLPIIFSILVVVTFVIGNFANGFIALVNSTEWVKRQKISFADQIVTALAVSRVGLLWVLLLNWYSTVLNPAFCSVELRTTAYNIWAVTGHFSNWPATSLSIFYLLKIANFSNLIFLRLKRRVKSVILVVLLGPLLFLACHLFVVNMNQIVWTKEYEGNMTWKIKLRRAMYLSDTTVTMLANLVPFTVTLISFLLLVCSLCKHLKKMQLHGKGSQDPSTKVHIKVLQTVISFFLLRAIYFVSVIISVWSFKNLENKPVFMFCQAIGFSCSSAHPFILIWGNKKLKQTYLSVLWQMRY
Protocol: as §2

[6] = target: T4, TAS2R46 (Homo sapiens, UniProt P59540); assay: Calcium mobilization assay, HEK293T-Gα16gust44 cells expressing TAS2R46; settings: for Response of TAS2R46: maximal concentration tested: sucralose 100 mM, neotame 30 µM, Ace-K 300 mM, RebA 4 mM, RebM 4 mM, mogroside V 5 mM, erythritol 200 mM, D-allulose 500 mM, thaumatin 100 mM
T4 sequence (P59540 1-309): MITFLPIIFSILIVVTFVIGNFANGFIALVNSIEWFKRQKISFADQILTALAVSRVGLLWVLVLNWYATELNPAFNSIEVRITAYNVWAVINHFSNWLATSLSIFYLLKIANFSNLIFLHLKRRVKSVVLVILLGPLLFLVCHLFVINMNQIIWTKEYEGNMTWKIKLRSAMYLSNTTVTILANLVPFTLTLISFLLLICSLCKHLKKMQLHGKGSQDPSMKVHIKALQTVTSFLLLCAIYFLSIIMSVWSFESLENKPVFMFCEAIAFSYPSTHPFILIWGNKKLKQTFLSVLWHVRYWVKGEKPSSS
Protocol: as §1

[7] = target: T5, TAS2R8 (Homo sapiens, UniProt Q9NYW2); assay: Calcium mobilization assay, HEK293T-Gα16gust44 cells expressing TAS2R8; settings: maximal concentration tested: sucralose 100 mM, neotame 30 µM, Ace-K 300 mM, RebA 4 mM, RebM 4 mM, mogroside V 5 mM, erythritol 200 mM, D-allulose 500 mM, thaumatin 100 mM
T5 sequence (Q9NYW2 1-309): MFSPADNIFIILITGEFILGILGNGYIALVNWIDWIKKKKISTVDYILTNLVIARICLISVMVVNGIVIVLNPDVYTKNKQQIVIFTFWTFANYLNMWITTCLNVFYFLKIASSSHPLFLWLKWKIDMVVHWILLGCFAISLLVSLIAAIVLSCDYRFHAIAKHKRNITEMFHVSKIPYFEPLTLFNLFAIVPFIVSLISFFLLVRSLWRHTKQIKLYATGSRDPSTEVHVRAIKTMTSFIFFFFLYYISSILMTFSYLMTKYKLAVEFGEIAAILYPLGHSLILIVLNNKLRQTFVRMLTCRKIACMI
Protocol: as §2

[8] = target: T6, TAS2R30 (Homo sapiens, UniProt P59541); assay: Calcium mobilization assay, HEK293T-Gα16gust44 cells expressing TAS2R30; settings: for Response of TAS2R30: maximal concentration tested: sucralose 100 mM, neotame 30 µM, Ace-K 300 mM, RebA 4 mM, RebM 4 mM, mogroside V 5 mM, erythritol 200 mM, D-allulose 500 mM, thaumatin 100 mM
T6 sequence (P59541 1-319): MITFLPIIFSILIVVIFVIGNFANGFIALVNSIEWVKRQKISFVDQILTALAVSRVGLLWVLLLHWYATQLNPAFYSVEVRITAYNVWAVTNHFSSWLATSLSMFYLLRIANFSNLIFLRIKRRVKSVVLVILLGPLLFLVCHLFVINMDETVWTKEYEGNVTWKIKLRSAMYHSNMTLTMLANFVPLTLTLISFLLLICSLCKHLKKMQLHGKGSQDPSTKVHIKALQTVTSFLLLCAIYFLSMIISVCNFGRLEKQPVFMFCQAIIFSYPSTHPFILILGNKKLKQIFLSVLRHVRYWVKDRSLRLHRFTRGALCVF
Protocol: as §1

[9] = target: T7, TAS2R42 (Homo sapiens, UniProt Q7RTR8); assay: Calcium mobilization assay, HEK293T-Gα16gust44 cells expressing TAS2R42; settings: maximal concentration tested: sucralose 100 mM, neotame 30 µM, Ace-K 300 mM, RebA 4 mM, RebM 4 mM, mogroside V 5 mM, erythritol 200 mM, D-allulose 500 mM, thaumatin 100 mM
T7 sequence (Q7RTR8 1-314): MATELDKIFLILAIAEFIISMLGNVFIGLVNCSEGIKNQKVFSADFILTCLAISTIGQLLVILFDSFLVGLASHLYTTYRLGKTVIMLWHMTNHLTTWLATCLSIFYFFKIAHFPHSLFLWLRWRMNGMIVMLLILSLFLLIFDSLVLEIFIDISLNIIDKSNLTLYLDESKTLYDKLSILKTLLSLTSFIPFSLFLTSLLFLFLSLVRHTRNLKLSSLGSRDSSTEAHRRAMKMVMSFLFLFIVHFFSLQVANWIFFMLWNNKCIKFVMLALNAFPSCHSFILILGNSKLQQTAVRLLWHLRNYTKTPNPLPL
Protocol: as §2

Sequence of TAS2R40 (P59535 whole entry): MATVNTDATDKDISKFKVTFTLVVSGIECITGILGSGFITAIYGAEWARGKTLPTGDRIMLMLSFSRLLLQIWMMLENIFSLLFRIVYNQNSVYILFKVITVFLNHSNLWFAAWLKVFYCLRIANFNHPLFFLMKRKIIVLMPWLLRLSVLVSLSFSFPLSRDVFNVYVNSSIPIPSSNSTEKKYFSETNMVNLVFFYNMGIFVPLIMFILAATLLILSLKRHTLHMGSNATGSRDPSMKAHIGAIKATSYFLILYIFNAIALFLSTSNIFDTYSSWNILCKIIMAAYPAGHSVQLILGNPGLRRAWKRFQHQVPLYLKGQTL

Row | Compound | Response of TAS2R40 [1] | Response of TAS2R14 [2] | Response of TAS2R50 [4] | Response of TAS2R45 [5] | Response of TAS2R46 [6] | Response of TAS2R8 [7] | Response of TAS2R30 [8] | Response of TAS2R42 [9] | EC50 ([6]; TAS2R46 EC50) | activation of any TAS2Rs [3] | number of TAS2Rs activated [3] | concentrations at which TAS2R30 was activated [8]
1 | COC(=O)[C@H](Cc1ccccc1)NC(=O)[C@H](CC(=O)O)NCCC(C)(C)C [Neotame] | − | − | − | − | − | − | − | − |  | Neither neotame, RebM, erythritol, or thaumatin activated any TAS2Rs |  | 
2 | OC[C@@H](O)[C@@H](O)CO [Erythritol, erythritol] | − | − | − | − | − | − | − | − |  | Neither neotame, RebM, erythritol, or thaumatin activated any TAS2Rs |  | 
3 | C[C@H](CC[C@@H](O[C@@H]1O[C@H](CO[C@@H]2O[C@H](CO)[C@@H](O)[C@H](O)[C@H]2O)[C@@H](O)[C@H](O)[C@H]1O[C@@H]1O[C@H](CO)[C@@H](O)[C@H](O)[C@H]1O)C(C)(C)O)[C@H]1CC[C@@]2(C)[C@@H]3CC=C4[C@@H](CC[C@H](O[C@@H]5O[C@H](CO[C@@H]6O[C@H](CO)[C@@H](O)[C@H](O)[C@H]6O)[C@@H](O)[C@H](O)[C@H]5O)C4(C)C)[C@]3(C)[C@H](O)C[C@]12C [Mogroside V, mogroside V] | − | − | − | − | − | − | − | − |  |  | 2 | 
4 | CC1=CC(=O)NS(=O)(=O)O1 [Ace-K, acesulfame-K] | − | − | − | − | − | − | − | − |  |  |  | 
5 | O=C(CO)[C@H](O)[C@H](O)[C@H](O)CO [D-allulose] | − | + | − | − | − | − | + | + |  |  | 7 | > 300 mM

More lines, main results first:

Row | Response of TAS2R40 [1] | Response of TAS2R14 [2] | Response of TAS2R50 [4] | Response of TAS2R45 [5] | Response of TAS2R46 [6] | Response of TAS2R8 [7] | Response of TAS2R30 [8] | Response of TAS2R42 [9] | EC50 ([6]; TAS2R46 EC50) | Compound | activation of any TAS2Rs [3] | number of TAS2Rs activated [3] | concentrations at which TAS2R30 was activated [8]
6 | − | − | − | − | − | − | − | − |  | C=C1C[C@@]23CC[C@H]4[C@@](C)(CCC[C@@]4(C)C(=O)O[C@@H]4O[C@H](CO)[C@@H](O)[C@H](O[C@@H]5O[C@H](CO)[C@@H](O)[C@H](O)[C@H]5O)[C@H]4O[C@@H]4O[C@H](CO)[C@@H](O)[C@H](O)[C@H]4O)[C@@H]2CC[C@]1(O[C@@H]1O[C@H](CO)[C@@H](O)[C@H](O[C@@H]2O[C@H](CO)[C@@H](O)[C@H](O)[C@H]2O)[C@H]1O[C@@H]1O[C@H](CO)[C@@H](O)[C@H](O)[C@H]1O)C3 [RebM, Rebaudioside M] | Neither neotame, RebM, erythritol, or thaumatin activated any TAS2Rs |  | 
7 | − | − | − | − | − | − | − | − |  | thaumatin | Neither neotame, RebM, erythritol, or thaumatin activated any TAS2Rs |  | 
8 | − | − | − | − | #^a | − | − | − | 3 mM and ≥ 3 mM | OC[C@H]1O[C@H](O[C@]2(CCl)O[C@H](CCl)[C@@H](O)[C@@H]2O)[C@H](O)[C@@H](O)[C@H]1Cl [Sucralose, sucralose] |  | 3 | 
